Assay [1] has as its system Chlamydia trachomatis elementary bodies. Nature of the assay: Lysis of Chlamydia trachomatis elementary bodies, read out by APA. Conditions: lysis buffer 0.4% SDS, pH 2.2, 2 minutes at 78° C.; compared with heat lysis 5 minutes at 95° C. The protocol:
Elementary body lysis (˜40/reaction) was probed in this example using an APA-based assay. Elementary bodies (Acrometrix) were added to either cold chlamydia transport media (SPD containing sucrose, phosphate buffer, and glutamic acid), TE (Tris-EDTA 10-1), or lysis buffer containing 0.4% SDS, pH 2.2. The samples in TE or SDS were heated 5 minutes at 95° C. (heat lysis) or 2 minutes at 78° C. (SDS lysis), respectively. Then 5 μl (containing 40 elementary bodies) was added to “wet” APA reaction mix as above (pH 7.6 to facilitate isothermal CAdNTP activation) containing 4% cyclodextrin HP-βCD for isothermal APA (68° C.) with fluorescence from a chlamydia-specific molecular beacon collected every 15 seconds.

Another assay concerns nasal swab ribonucleases. Nature of the assay: Protection of RNA from nasal swab ribonucleases (influenza B RNA APA). Type of assay: biochemical, human.
A further assay deals with Taq polymerase (Thermus aquaticus, UniProt P19821). Conditions: cited from earlier work.
In a further assay the target is 9° Nm™ DNA polymerase (Thermococcus sp., UniProt Q56366, E143D). Description: APA amplification of Neisseria gonorrhea DNA with SDS, with or without HPβCD. Type of assay: biochemical. Conditions: no protective agent (absence of βCD); 500 copies N. gonorrhea genomic DNA; APA at 68° C. As for the experimental part: This example provides SDS complexation analyses of the methods and compositions provided herein. […] Anionic detergent SDS at >0.01% is inhibitory to APA amplification of DNA, but the presence of the protective agent hydroxypropyl β-CD (βCD) allowed amplification to proceed despite≤0.2% SDS. The kinetics of hydroxypropyl β-CD sequestration of SDS were thus sufficiently rapid at a molar ratio of 2:1 (˜14 mM: −7 mM) to prevent 9° Nm™ DNA polymerase inactivation by SDS.
Standard APA reactions with or without 4% Sigma 389145 HPβCD containing “hot-start” CleanAmp™ deoxynucleotides (CAdNTP) and a sequence-specific molecular beacon detection probe were performed with lyophilized ((supplemented with dextran 40, Trehalose), FIG. 2B) or “wet” (no HPβCD, FIG. 2A) reagents including Tris pH 8.4, KCl, MgSO4, and (NH4)2SO4 Triton X-100, 9° Nm™ DNA polymerase, CAdNTP, primers and probe. For the lyophilized reactions, samples were prepared in 50 μl solution containing MgSO4, and (NH4)2SO4 with (shapes) or without (dashed) 500 copies of N. gonorrhea genomic DNA. After dried reagents were dissolved with the samples, various amounts of SDS were added, as indicated, and solutions were vortexed. For the wet reactions, 45 μl master mix containing all reaction components was added to 5 μl sample containing 1OX SDS (final concentration as indicated), with and without 500 copies of N. gonorrhea genomic DNA. Activation of CAdNTP by 2 minutes 90° C. was followed by APA at 68° C. for 10 minutes with detection of the NG amplification product by fluorescence collected every 15 seconds.

Assay [2] concerns the target T1, RNase A (Bos taurus, UniProt P61823).
T1 sequence (P61823 27-150): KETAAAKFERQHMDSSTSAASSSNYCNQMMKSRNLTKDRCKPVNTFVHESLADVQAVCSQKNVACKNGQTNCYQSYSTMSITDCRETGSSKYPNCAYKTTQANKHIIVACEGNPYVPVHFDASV
Description: Influenza B virus APA assay with RNase A in ELB (Elution/Lysis Buffer). Type of assay: biochemical. Conditions: RNAse A 10 μg/ml; 2 minutes 58° C. in ELB with 0.2% SDS, without or with 10 mM DTT; β-CD 4% final. The protocol: FIGS. 12A-12B depict data related to RNase A inactivation in an influenza B assay like the one in Example 4, with DTT in ELB (Elution/Lysis Buffer). […] After incubation, lyophilized APA reagents co-incubated 2 minutes 58° C., containing β-CD (4% final) were dissolved with the heated solutions, and FAM fluorescence collected every 15 seconds to monitor APA. […] The inclusion of DTT enables unimpeded operation of this POC influenza detection system in a mock sample containing very high level of purified RNase A ([…]). Moreover, while currently available methods can only achieve irreversible ribonuclease inactivation at a maximum 200 ng/ml, the compositions and methods provided herein show utility with 10 μg/ml to accommodate potentially larger amounts in patient samples.

The target in assay [3] is T1, RNase A. Nature of the assay: RNase Alert assay of RNase A activity recovery after SDS/DTT pretreatment. Conditions: 2 ng RNase A, 2 minutes at 58° C.; 10 mM DTT and/or 0.2% SDS; then 4% βCD. Type of assay: biochemical. The protocol: 2 ng RNase A was incubated 2 minutes at 58° C. in […] solutions containing either 10 mM DTT+0.2% SDS (+), 0.2% SDS (triangle), 10 mM DTT (square), or neither (solid line) and then the RNase Alert assay was used to study the recovery of any RNase activity upon sequestration of SDS after dissolving lyophilized APA reagents without enzymes but containing RNase Alert substrate and protective agent (4% βCD) with continued incubation and fluorescence data collection at 58° C. In the presence of RNase activity, the RNase alert indicator substrate releases detectable fluorescence. […] FIG. 11A depicts recovery of RNase A activity after identical pretreatment without addition of βCD, in this case monitoring activity in […] of the solution by transfer to an RNase alert “wet” reaction format. […] Thus, as shown here, simultaneous treatment with ionic detergent and reducing agent is required for successful irreversible inactivation under the conditions described herein. […] Without being bound by any particular theory, this may be related to the impact of cyclodextrin and other APA additives on the refolding process. This example also provides further confirmation that the prior art and currently available methods (e.g, employing a reducing agent but no denaturant) are inadequate under these conditions, with an independent, commercially available RNase assay.

Chain of 9° Nm™ DNA polymerase (Q56366 whole entry E143D): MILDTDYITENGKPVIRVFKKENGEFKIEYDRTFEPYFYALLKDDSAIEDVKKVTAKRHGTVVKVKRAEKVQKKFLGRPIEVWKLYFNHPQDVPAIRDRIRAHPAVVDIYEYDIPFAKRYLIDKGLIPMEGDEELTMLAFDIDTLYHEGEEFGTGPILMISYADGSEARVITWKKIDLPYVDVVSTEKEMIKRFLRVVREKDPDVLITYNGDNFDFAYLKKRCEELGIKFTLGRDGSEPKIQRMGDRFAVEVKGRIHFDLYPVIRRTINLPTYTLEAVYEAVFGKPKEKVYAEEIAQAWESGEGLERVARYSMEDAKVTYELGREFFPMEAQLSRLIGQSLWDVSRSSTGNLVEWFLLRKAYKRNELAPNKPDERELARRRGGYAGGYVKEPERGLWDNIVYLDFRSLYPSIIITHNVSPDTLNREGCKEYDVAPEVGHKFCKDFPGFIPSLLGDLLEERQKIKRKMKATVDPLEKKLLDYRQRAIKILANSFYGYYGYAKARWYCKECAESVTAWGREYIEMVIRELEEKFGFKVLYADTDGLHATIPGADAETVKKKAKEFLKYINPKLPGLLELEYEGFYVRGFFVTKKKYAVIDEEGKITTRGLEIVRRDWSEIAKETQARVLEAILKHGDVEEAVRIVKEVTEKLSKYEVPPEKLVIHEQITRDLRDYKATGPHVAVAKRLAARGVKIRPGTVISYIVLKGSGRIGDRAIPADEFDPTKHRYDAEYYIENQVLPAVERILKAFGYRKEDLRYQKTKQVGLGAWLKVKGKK
Chain of Taq polymerase (P19821 whole entry): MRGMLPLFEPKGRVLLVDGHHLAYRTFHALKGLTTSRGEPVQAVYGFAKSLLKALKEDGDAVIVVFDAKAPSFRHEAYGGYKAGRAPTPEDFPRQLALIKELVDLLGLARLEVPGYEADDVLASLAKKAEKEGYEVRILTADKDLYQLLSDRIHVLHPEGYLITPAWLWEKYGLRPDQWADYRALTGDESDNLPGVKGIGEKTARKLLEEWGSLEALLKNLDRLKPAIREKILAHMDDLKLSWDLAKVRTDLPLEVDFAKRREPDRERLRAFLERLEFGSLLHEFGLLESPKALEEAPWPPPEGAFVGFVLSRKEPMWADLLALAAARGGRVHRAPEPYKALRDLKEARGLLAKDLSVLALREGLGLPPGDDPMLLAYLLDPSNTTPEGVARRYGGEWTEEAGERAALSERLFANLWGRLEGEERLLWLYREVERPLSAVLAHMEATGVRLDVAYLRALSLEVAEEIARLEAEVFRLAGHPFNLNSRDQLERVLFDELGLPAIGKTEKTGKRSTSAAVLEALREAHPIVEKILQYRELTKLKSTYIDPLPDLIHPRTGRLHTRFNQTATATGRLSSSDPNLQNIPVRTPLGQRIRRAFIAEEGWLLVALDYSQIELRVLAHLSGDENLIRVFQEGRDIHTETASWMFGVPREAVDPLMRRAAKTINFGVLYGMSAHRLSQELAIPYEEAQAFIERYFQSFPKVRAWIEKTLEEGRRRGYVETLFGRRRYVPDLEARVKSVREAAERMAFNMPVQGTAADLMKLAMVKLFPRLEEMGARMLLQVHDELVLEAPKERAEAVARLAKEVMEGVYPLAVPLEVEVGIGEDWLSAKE

Turning to `CCCCCCCCCCCCOS(=O)(=O)[O-].[Na+]` [SDS, sodium dodecyl sulfate], the “Liberation of target DNA from elementary bodies (lysis)” value in assay [1] is given as “as effective in liberating target DNA as the heat lysis”. Besides, the “RNA detectability eliminated by recovered RNase activity (assay calibration)” value in the assay with nasal swab ribonucleases (0.2% SDS without DTT, 2-minute incubation at 58° C.) is recorded as over 95%. For the same compound, in the assay with nasal swab ribonucleases (nasal swab eluate 4% of swab, 0.2% SDS with or without 10 mM DTT, 2 minutes at 58° C., then 4% βCD), the “Influenza B RNA detection after nasal swab eluate pretreatment and SDS sequestration” value is “no detection”. The “SDS concentration with inhibitory effect for PCR with Taq polymerase” value at Taq polymerase is recorded as “greater than 0.01 % (w/v)”. Also, on 9° Nm™ DNA polymerase, the “SDS concentration inhibitory to APA amplification of DNA” value was over 0.01%. Also, the “Influenza B virus APA performance in presence of RNAse A” value on RNase A [2] is given as “recovery of inhibitory levels of RNAse A”. For the same compound, the “Recovery of RNase A activity after pretreatment, with βCD” value at RNase A [3] is “virtually full recovery of enzyme activity”.

The values are drawn from patent publication US20250154607A1, “ISOTHERMAL AMPLIFICATION OF PATHOGENS” (priority 2021, published 2025).
